From patent US20250002548A1, “Wild Boar Cathelicidin Peptide Variants and Vectors Encoding the Same for Uses in Managing Coronavirus Infections” (Emory University, priority 2021, published 2025) come the findings set out here.

In general, pIC50 refers to the IC50 on a negative log10 scale, so that one unit is a factor of ten. A low value points to a large IC50.

Series [1] relates to Vero E6 and HEK293T cells. Conditions: administered over 48 hours.
For series [2], the system named is SARS-CoV-2. Conditions: ratio of IC50 and TD50; SARS-CoV-2 vs Vero E6 cells.
Series [3] concerns human red blood cells (RBCs).
Series [4] has as its system SARS-CoV-2.

pIC50: −log10 of the molar value. Square brackets hold non-standard residues; d marks the D form. Peptide text beside a SMILES is read from it.

Turning to `CC[C@@H](C)[C@@H](NC(=O)[C@H]1CCCN1C(=O)[C@H]1CCCN1C(=O)[C@H](NC(=O)[C@@H](Cc1c[nH]c2ccccc12)NC(=O)[C@@H](CCCCN)NC(=O)[C@@H](CC(C)C)NC(=O)[C@H](NC(=O)[C@@H](CCCCN)NC(=O)CNC(=O)[C@H](NC(=O)[C@@H](CCCCN)NC(=O)[C@@H](CCCCN)NC(=O)[C@@H](CC(C)C)NC(=O)[C@@H](CCCNC(=N)N)NC(=O)[C@@H](CCCCN)NC(=O)[C@@H](CCCNC(=N)N)NC(=O)[C@H](NC(=O)[C@@H](CCCCN)NC(=O)[C@@H](CCCCN)NC(=O)[C@@H](CCCNC(=N)N)NC(=O)[C@@H](CC(C)C)NC(=O)[C@@H](CCCNC(=N)N)NC(=O)[C@@H](CCCNC(=N)N)NC(=O)[C@@H](Cc1ccccc1)NC(=O)[C@@H](CCCNC(=N)N)NC(=O)CNC(=O)[C@H](N)C(C)C)[C@H](C)O)[C@H](C)CC)C(C)C)[C@H](C)CC)C(=O)N[C@@H](C(=O)NCC(=O)N[C@H](CO)C(=O)N[C@@H](C(=O)N1CCC[C@@H]1C(=O)N[C@H](CC(C)C)C(=O)NCC(=O)N[C@H](CO)C(=O)NCC(=O)O)[C@H](C)CC)C(C)C` [D-Yongshi] (H-[dV]G[dR][dF][dR][dR][dL][dR][dK][dK][dT][dR][dK][dR][dL][dK][dK][dI]G[dK][dV][dL][dK][dW][dI][dP][dP][dI][dV]G[dS][dI][dP][dL]G[dS]G-OH), the cytotoxicity result in series [1] is listed as “significantly increased cytotoxicity”. The “therapeutic index (TI)” value with SARS-CoV-2 [2] turned out to be 1.64.

As to `CC[C@H](C)[C@H](NC(=O)[C@H](CCCCN)NC(=O)[C@H](CCC(=O)O)NC(=O)[C@H](CCCCN)NC(=O)[C@H](CO)NC(=O)[C@H](CCCCN)NC(=O)[C@H](CCCNC(=N)N)NC(=O)[C@H](Cc1ccccc1)NC(=O)[C@H](Cc1ccccc1)NC(=O)[C@H](CC(=O)O)NC(=O)CNC(=O)[C@H](CC(C)C)NC(=O)[C@@H](N)CC(C)C)C(=O)NCC(=O)N[C@@H](CCCCN)C(=O)N[C@@H](CCC(=O)O)C(=O)N[C@@H](Cc1ccccc1)C(=O)N[C@@H](CCCCN)C(=O)N[C@@H](CCCNC(=N)N)C(=O)N[C@H](C(=O)N[C@H](C(=O)N[C@@H](CCC(N)=O)C(=O)N[C@@H](CCCNC(=N)N)C(=O)N[C@H](C(=O)N[C@@H](CCCCN)C(=O)N[C@@H](CC(=O)O)C(=O)N[C@@H](Cc1ccccc1)C(=O)N[C@@H](CC(C)C)C(=O)N[C@@H](CCCNC(=N)N)C(=O)N[C@@H](CC(N)=O)C(=O)N[C@@H](CC(C)C)C(=O)N[C@H](C(=O)N1CCC[C@H]1C(=O)N[C@@H](CCCNC(=N)N)C(=O)N[C@H](C(=O)N[C@@H](CCC(=O)O)C(=O)N[C@@H](CO)C(=O)O)[C@@H](C)O)C(C)C)[C@@H](C)CC)C(C)C)[C@@H](C)CC` [LL-37, reference compound], in series [3], the hemolytic activity result is listed as “significant hemolytic activity”.

Compound `CC[C@H](C)[C@H](NC(=O)[C@H](CCCCN)NC(=O)[C@H](CCCCN)NC(=O)[C@H](CC(C)C)NC(=O)[C@H](CCCNC(=N)N)NC(=O)[C@H](CCCCN)NC(=O)[C@H](CCCNC(=N)N)NC(=O)[C@@H](NC(=O)[C@H](CCCCN)NC(=O)[C@H](CCCCN)NC(=O)[C@H](CCCNC(=N)N)NC(=O)[C@H](CC(C)C)NC(=O)[C@H](CCCNC(=N)N)NC(=O)[C@H](CCCNC(=N)N)NC(=O)[C@H](Cc1ccccc1)NC(=O)[C@H](CCCNC(=N)N)NC(=O)CNC(=O)[C@@H](N)C(C)C)[C@@H](C)O)C(=O)NCC(=O)N[C@@H](CCCCN)C(=O)N[C@H](C(=O)N[C@@H](CC(C)C)C(=O)N[C@@H](CCCCN)C(=O)N[C@@H](Cc1c[nH]c2ccccc12)C(=O)N[C@H](C(=O)N1CCC[C@H]1C(=O)N1CCC[C@H]1C(=O)N[C@H](C(=O)N[C@H](C(=O)NCC(=O)N[C@@H](CO)C(=O)N[C@H](C(=O)N1CCC[C@H]1C(=O)N[C@@H](CC(C)C)C(=O)NCC(=O)N[C@@H](CS)C(=O)NCC(=O)O)[C@@H](C)CC)C(C)C)[C@@H](C)CC)[C@@H](C)CC)C(C)C` [PMAP-36R] (H-VGRFRRLRKKTRKRLKKIGKVLKWIPPIVGSIPLGCG-OH; N-terminus and C-terminus assumed) had a negative-log IC50 (pIC50) with SARS-CoV-2 [4] of 4.92. Further, the hemolytic activity result in series [3] was “significant hemolytic activity”. Moreover, the cytotoxicity entry in series [1] is “greater toxicity than LL-37”.

As for `CC[C@H](C)[C@H](NC(=O)[C@H](CCCCN)NC(=O)[C@H](CCCCN)NC(=O)[C@H](CC(C)C)NC(=O)[C@H](CCCNC(=N)N)NC(=O)[C@H](CCCCN)NC(=O)[C@H](CCCNC(=N)N)NC(=O)[C@@H](NC(=O)[C@H](CCCCN)NC(=O)[C@H](CCCCN)NC(=O)[C@H](CCCNC(=N)N)NC(=O)[C@H](CC(C)C)NC(=O)[C@H](CCCNC(=N)N)NC(=O)[C@H](CCCNC(=N)N)NC(=O)[C@H](Cc1ccccc1)NC(=O)[C@H](CCCNC(=N)N)NC(=O)CNC(=O)[C@@H](N)C(C)C)[C@@H](C)O)C(=O)NCC(=O)N[C@@H](CCCCN)C(=O)N[C@H](C(=O)N[C@@H](CC(C)C)C(=O)N[C@@H](CCCCN)C(=O)N[C@@H](Cc1c[nH]c2ccccc12)C(=O)N[C@H](C(=O)N1CCC[C@H]1C(=O)N1CCC[C@H]1C(=O)N[C@H](C(=O)N[C@H](C(=O)NCC(=O)N[C@@H](CO)C(=O)N[C@H](C(=O)N1CCC[C@H]1C(=O)N[C@@H](CC(C)C)C(=O)NCC(=O)N[C@@H](CO)C(=O)NCC(=O)O)[C@@H](C)CC)C(C)C)[C@@H](C)CC)[C@@H](C)CC)C(C)C` [Yongshi] (H-VGRFRRLRKKTRKRLKKIGKVLKWIPPIVGSIPLGSG-OH), the hemolytic activity result in series [3] is reported as “significantly reduced hemolytic activity”. Besides, the cytotoxicity entry in series [1] was “decreased cytotoxicity compared to the parent PMAP-36R and LL-37”. The “therapeutic index (TI)” value with SARS-CoV-2 [2] is recorded as 3.50.
